Data: patent publication US12128041B2, “Nanoparticles for delivering drug, whose surface is modified with peptide for targeting brain cancer, preparation method thereof and use thereof” (UNIVERSITY-INDUSTRY COOPERATION GROUP OF KYUNG HEE …, priority 2020, dated 2024)
Read-outs that look alike come from different tables or passages of the source. Where a SMILES comes first, the peptide text is derived from it.

Assays:
[1] = Passage through the blood-brain barrier, confocal microscopy of brain tissue sections; type: in vivo, mice; conditions: brain removed 3 hours after tail vein injection of SIWV-TAMRA
[2] = mouse, in vivo
U87MG cells [3] = assay: Intracellular uptake in U87MG cells by confocal microscope; type: cell-based, human; conditions: cultured for 6 hours
Experimental: (§1) The present inventor conducted the following experiments to confirm the intracellular uptake efficiency and cytotoxicity of SIWV-pSiNP(SN-38). Specifically, U87MG cells were seeded into 96-well plates at a density of 10,000 cells/well and cultured under the conditions of 5% CO2 and 37° C. for 24 hours. Thereafter, the cells were treated with 100 μL of each of the SN-38 drug alone, pSiNPs, pSiNP(SN-38) and SIWV-pSiNP(SN-38) nanoparticles at a concentration of 6.25, 12.5, 25, 50, and 100 μM, respectively, and cultured for 6 hours. After 6 hours, in order to confirm the intracellular uptake efficiency, cell nuclei were stained by treating the cells with a 4′,6-diamino-2-phenylindole (DAPI) reagent for 10 minutes, and cell membranes were then stained by treating the cells with a CellMask™ Deep Red Plasma membrane stain reagent for 1 hour. After staining, the cells were washed three times with PBS and treated with 4% paraformaldehyde for 20 minutes to fix the cells, and then the cells were observed under a confocal microscope.

U87MG cells [4] = assay: Cytotoxicity in U87MG cells, WST-1 cell viability; type: cell-based, human; conditions: 6 hours
Experimental: as §1
Meanwhile, after the cells were treated with SN-38 and each of the nanoparticles as described above and cultured for 6 hours, 10 μL of a 10% WST-1 reagent was added to each well and the cells were cultured for 2 hours. Thereafter, cell viability was analyzed by measuring the absorbance at 450 nm using a microplate reader, and the cell viability was analyzed using a relative percentage for U87MG cells not treated with nanoparticles.

[5] = In vivo distribution of TAMRA-labeled SIWV peptide in healthy mice by fluorescence signal; conditions: tail vein injection

## CC[C@H](C)[C@H](NC(=O)[C@@H](N)CO)C(=O)N[C@@H](Cc1c[nH]c2ccccc12)C(=O)N[C@H](C(=O)O)C(C)C [SIWV peptide] (H-SIWV-OH; N-terminus and C-terminus assumed)
[1]
  passage through the blood-brain barrier: passed through the blood-brain barrier
[2]
  time of excretion from the body: 24 h

## CCc1c2c(nc3ccc(O)cc13)-c1cc3c(c(=O)n1C2)COC(=O)[C@]3(O)CC [SN-38, 7-ethyl-10-hydroxy-camptothecin]
U87MG cells [3]
  intracellular uptake: intracellular uptake did not occur
U87MG cells [4]; 6.5 μM
  cytotoxicity (toxicity of U87MG cells): 12.4%
U87MG cells [4]; 100 μM
  cytotoxicity: 55.4%
U87MG cells [4]; U87MG cells, 6.25 to 100 μM
  concentration dependence of toxicity: increased toxicity as the treatment concentration was increased

## CN(C)c1ccc2c(-c3ccccc3C(=O)[O-])c3ccc(N(C)C)cc3[o+]c2c1 [TAMRA, tetramethylrhodamine]
[5]
  time of excretion from the body: ≤ 2 h
